Laboratory results taken from ChEMBL document CHEMBL1201862, “PubChem BioAssay data set” (2004).
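96-well plates; 48 h exposure; 5 concentrations. Endpoints by linear interpolation between flanking doses. Not reached: highest tested concentration assigned. The concentration for 50% growth inhibition is given as GI50.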 Activity calls are given as the source filed them. No stated cut-off is given here; in the data, active = GI50 up to about 1.1 µM and inactive = higher.

Key:
Test in all cases: growth of human tumour cells (NCI), 48 h
OVCAR-8 = system: OVCAR-8
HOP-62 = system: HOP-62
OVCAR-3 = system: OVCAR-3
NCI/ADR-RES = system: NCI/ADR-RES
MOLT-4 = system: MOLT-4
SW-620 = system: SW-620
SK-OV-3 = system: SK-OV-3
UACC-257 = system: UACC-257
SF-268 = system: SF-268
TK-10 = system: TK-10
M14 = system: M14
A498 = system: A498
EKVX = system: EKVX
PC-3 = system: PC-3
DU-145 = system: DU-145
IGROV-1 = system: IGROV-1
NCI-H226 = system: NCI-H226
SNB-19 = system: SNB-19
OVCAR-4 = system: OVCAR-4
786-0 = system: 786-0
MCF7 = system: MCF7
MDA-MB-231 = system: MDA-MB-231
UACC-62 = system: UACC-62
NCI-H460 = system: NCI-H460
Hs-578T = system: Hs-578T
KM12 = system: KM12
SF-295 = system: SF-295
HT-29 = system: HT-29
SN12C = system: SN12C
UO-31 = system: UO-31
SR = system: SR
HCC 2998 = system: HCC 2998
Malme-3M = system: Malme-3M
SK-MEL-5 = system: SK-MEL-5
K562 = system: K562
COLO 205 = system: COLO 205
NCI-H522 = system: NCI-H522
HOP-92 = system: HOP-92
HCT-15 = system: HCT-15
MDA-N = system: MDA-N
RPMI-8226 = system: RPMI-8226
SNB-75 = system: SNB-75
LOX IMVI = system: LOX IMVI
HL-60 = system: HL-60
A549 = system: A549
MDA-MB-435 = system: MDA-MB-435
SK-MEL-28 = system: SK-MEL-28
NCI-H23 = system: NCI-H23
CAKI-1 = system: CAKI-1
CCRF-CEM = system: CCRF-CEM
U-251 = system: U-251
SF-539 = system: SF-539
HCT-116 = system: HCT-116
ACHN = system: ACHN
T47D = system: T47D
RXF 393 = system: RXF 393
SK-MEL-2 = system: SK-MEL-2
OVCAR-5 = system: OVCAR-5
BT-549 = system: BT-549

## Clc1ccc(Cl)c(/N=N\c2cc3c4c(c2)CCN4CCC3)c1
OVCAR-8
  GI50: > 10 µM (inactive)
HOP-62
  GI50: > 10 µM (inactive)
OVCAR-3
  GI50: > 10 µM (inactive)
NCI/ADR-RES
  GI50: > 10 µM (inactive)
MOLT-4
  GI50: > 10 µM (inactive)
SW-620
  GI50: > 10 µM (inactive)
SK-OV-3
  GI50: > 10 µM (inactive)
UACC-257
  GI50: > 10 µM (inactive)
SF-268
  GI50: > 10 µM (inactive)
TK-10
  GI50: > 10 µM (inactive)
M14
  GI50: > 10 µM (inactive)
A498
  GI50: > 10 µM (inactive)
EKVX
  GI50: > 10 µM (inactive)
PC-3
  GI50: > 10 µM (inactive)
DU-145
  GI50: > 10 µM (inactive)
IGROV-1
  GI50: > 10 µM (inactive)
NCI-H226
  GI50: > 10 µM (inactive)
SNB-19
  GI50: > 10 µM (inactive)
OVCAR-4
  GI50: > 10 µM (inactive)
786-0
  GI50: > 10 µM (inactive)
MCF7
  GI50: > 10 µM (inactive)
MDA-MB-231
  GI50: > 10 µM (inactive)
UACC-62
  GI50: > 10 µM (inactive)
NCI-H460
  GI50: > 10 µM (inactive)
Hs-578T
  GI50: > 10 µM (inactive)
KM12
  GI50: > 10 µM (inactive)
SF-295
  GI50: > 10 µM (inactive)
HT-29
  GI50: > 10 µM (inactive)
SN12C
  GI50: > 10 µM (inactive)
UO-31
  GI50: > 10 µM (inactive)
SR
  GI50: > 10 µM (inactive)
HCC 2998
  GI50: > 10 µM (inactive)
Malme-3M
  GI50: > 10 µM (inactive)
SK-MEL-5
  GI50: > 10 µM (inactive)
K562
  GI50: > 10 µM (inactive)
COLO 205
  GI50: > 10 µM (inactive)
NCI-H522
  GI50: > 10 µM (inactive)
HOP-92
  GI50: > 10 µM (inactive)
HCT-15
  GI50: > 10 µM
MDA-N
  GI50: > 10 µM (inactive)
RPMI-8226
  GI50: > 10 µM (inactive)
SNB-75
  GI50: > 10 µM (inactive)
LOX IMVI
  GI50: > 10 µM (inactive)
HL-60
  GI50: > 10 µM (inactive)
A549
  GI50: > 10 µM (inactive)
MDA-MB-435
  GI50: > 10 µM (inactive)
SK-MEL-28
  GI50: > 10 µM (inactive)
NCI-H23
  GI50: > 10 µM (inactive)
CAKI-1
  GI50: > 10 µM (inactive)
CCRF-CEM
  GI50: > 10 µM (inactive)
U-251
  GI50: > 10 µM (inactive)
SF-539
  GI50: > 10 µM (inactive)
HCT-116
  GI50: > 10 µM (inactive)
ACHN
  GI50: > 10 µM (inactive)
T47D
  GI50: > 10 µM (inactive)
RXF 393
  GI50: 8.65 µM (inactive)
SK-MEL-2
  GI50: > 10 µM (inactive)

## COc1cc(/C=C(\C#N)c2ccccn2)cc(Br)c1O
OVCAR-8
  GI50: 65.3 µM (inactive)
HOP-62
  GI50: 28.8 µM (inactive)
OVCAR-3
  GI50: 31.8 µM (inactive)
NCI/ADR-RES
  GI50: 20.9 µM (inactive)
MOLT-4
  GI50: 35 µM (inactive)
SW-620
  GI50: 18.4 µM (inactive)
SK-OV-3
  GI50: 55.1 µM (inactive)
UACC-257
  GI50: 48.8 µM (inactive)
SF-268
  GI50: 51.4 µM (inactive)
TK-10
  GI50: > 100 µM (inactive)
M14
  GI50: 34.2 µM (inactive)
EKVX
  GI50: 97.5 µM (inactive)
PC-3
  GI50: 68.1 µM (inactive)
DU-145
  GI50: > 100 µM (inactive)
IGROV-1
  GI50: 54.7 µM (inactive)
OVCAR-5
  GI50: > 100 µM (inactive)
NCI-H226
  GI50: 72.6 µM (inactive)
SNB-19
  GI50: 39 µM (inactive)
OVCAR-4
  GI50: > 100 µM (inactive)
786-0
  GI50: 68.7 µM (inactive)
MCF7
  GI50: 24.4 µM (inactive)
UACC-62
  GI50: 55.7 µM (inactive)
NCI-H460
  GI50: 36.3 µM (inactive)
KM12
  GI50: 36.1 µM (inactive)
SF-295
  GI50: 37.8 µM (inactive)
HT-29
  GI50: 40.1 µM (inactive)
SN12C
  GI50: 45.2 µM (inactive)
UO-31
  GI50: 58.5 µM (inactive)
BT-549
  GI50: 34.1 µM (inactive)
SR
  GI50: 22.7 µM (inactive)
HCC 2998
  GI50: 36.8 µM (inactive)
Malme-3M
  GI50: 26.4 µM (inactive)
SK-MEL-5
  GI50: 40.1 µM (inactive)
K562
  GI50: 4.48 µM (inactive)
COLO 205
  GI50: 35.5 µM (inactive)
NCI-H522
  GI50: 27.5 µM (inactive)
HCT-15
  GI50: 21.9 µM
MDA-N
  GI50: > 100 µM (inactive)
RPMI-8226
  GI50: 40.9 µM (inactive)
SNB-75
  GI50: 37 µM (inactive)
HL-60
  GI50: 24 µM (inactive)
A549
  GI50: 58.6 µM (inactive)
SK-MEL-28
  GI50: 26.8 µM (inactive)
NCI-H23
  GI50: 31 µM (inactive)
CAKI-1
  GI50: 48.5 µM (inactive)
CCRF-CEM
  GI50: 31.3 µM (inactive)
U-251
  GI50: 28 µM (inactive)
SF-539
  GI50: 31.3 µM (inactive)
HCT-116
  GI50: > 100 µM (inactive)
ACHN
  GI50: 97.7 µM (inactive)
RXF 393
  GI50: 46.2 µM (inactive)
SK-MEL-2
  GI50: 32.9 µM (inactive)

## NCCS(=O)(=O)O [TAURINE]
OVCAR-8
  GI50: > 100 µM (inactive)
HOP-62
  GI50: > 100 µM (inactive)
OVCAR-3
  GI50: > 100 µM (inactive)
NCI/ADR-RES
  GI50: > 100 µM (inactive)
MOLT-4
  GI50: > 100 µM (inactive)
SW-620
  GI50: > 100 µM (inactive)
UACC-257
  GI50: > 100 µM (inactive)
SF-268
  GI50: > 100 µM (inactive)
TK-10
  GI50: > 100 µM (inactive)
M14
  GI50: > 100 µM (inactive)
EKVX
  GI50: > 100 µM (inactive)
PC-3
  GI50: > 100 µM (inactive)
DU-145
  GI50: > 100 µM (inactive)
IGROV-1
  GI50: > 100 µM (inactive)
OVCAR-5
  GI50: > 100 µM (inactive)
NCI-H226
  GI50: > 100 µM (inactive)
SNB-19
  GI50: > 100 µM (inactive)
786-0
  GI50: > 100 µM (inactive)
MCF7
  GI50: > 100 µM (inactive)
MDA-MB-231
  GI50: > 100 µM (inactive)
NCI-H460
  GI50: > 100 µM (inactive)
Hs-578T
  GI50: > 100 µM (inactive)
KM12
  GI50: > 100 µM (inactive)
SF-295
  GI50: > 100 µM (inactive)
HT-29
  GI50: > 100 µM (inactive)
SN12C
  GI50: > 100 µM (inactive)
UO-31
  GI50: > 100 µM (inactive)
SR
  GI50: > 100 µM (inactive)
HCC 2998
  GI50: > 100 µM (inactive)
Malme-3M
  GI50: > 100 µM (inactive)
SK-MEL-5
  GI50: > 100 µM (inactive)
K562
  GI50: > 100 µM (inactive)
COLO 205
  GI50: > 100 µM (inactive)
NCI-H522
  GI50: > 100 µM (inactive)
HOP-92
  GI50: > 100 µM (inactive)
HCT-15
  GI50: > 100 µM
MDA-N
  GI50: > 100 µM (inactive)
RPMI-8226
  GI50: > 100 µM (inactive)
SNB-75
  GI50: > 100 µM (inactive)
LOX IMVI
  GI50: > 100 µM (inactive)
HL-60
  GI50: > 100 µM (inactive)
A549
  GI50: > 100 µM (inactive)
MDA-MB-435
  GI50: > 100 µM (inactive)
SK-MEL-28
  GI50: > 100 µM (inactive)
NCI-H23
  GI50: > 100 µM (inactive)
CAKI-1
  GI50: > 100 µM (inactive)
CCRF-CEM
  GI50: > 100 µM (inactive)
U-251
  GI50: > 100 µM (inactive)
SF-539
  GI50: > 100 µM (inactive)
HCT-116
  GI50: > 100 µM (inactive)
ACHN
  GI50: > 100 µM (inactive)
T47D
  GI50: > 100 µM (inactive)
SK-MEL-2
  GI50: > 100 µM (inactive)
